Where two headings read alike, the source gives them in different places. No end group written: not given here.
Key:
[1] = tested on: B. cereus; format: cell-based; conditions: 24 h
Procedure: (§1) Luria-Bertani broth (LB) and Sabouraud Dextrose broth (SB) (Biocorp, Poland) were used for cultivation of bacteria and fungi strains, respectively. Antimicrobial activity of peptides was analyzed through determination of MIC (minimal inhibitory concentration) parameter according to the standard microdilution technique performed on 96-well plates. Mueller-Hinton broth (MHB) was used as the working medium for all bacterial strains, while in case of fungi it was additionally supplemented with 2% glucose.
(§2) Briefly, inoculum was prepared from freshly grown cultures of microorganisms being at their exponential phase of growth. Each well of 96-well plates containing 100 μL of serially diluted peptides in PBS (phosphate buffer saline) at concentration ranging from 2 to 250 μg/mL were inoculated with 100 μL of approximately 10^5 CFU/mL of bacterial suspension or about 2.5 x 10^3 CFU/mL of fungi suspended in a double concentrated Mueller-Hinton broth (supplemented with 2% glucose for Candida spps.). Then plates were incubated overnight at 37°C and absorbance was read at 590 nm after 24 h. Cultures without peptide were treated as positive control, while uninoculated Mueller-Hinton broth was defined as negative control. All measurements were run at least in triplicate.
(§3) All peptides were screened against the wide range of microorganisms, including Gram-negative, Gram-positive bacteria and fungi from Candida species (Table 2). Broth microdilution method for MIC determination was used as a standard procedure. All assays were performed on liquid Mueller-Hinton broth, which was additionally supplemented with 2% glucose when fungicidal activity towards Candida spps. was analyzed.

[2] = tested on: B. subtilis; format: cell-based; conditions: 24 h
Procedure: as §1, §2, §3

[3] = tested on: Pseudomonas aeruginosa (PCM 499); format: cell-based
Text: (§4) Escherichia coli (PCM 2057), Staphylococcus aureus (PCM 2054), Staphylococcus epidermidis (PCM 2118), Pseudomonas aeruginosa (PCM 499) were obtained from Polish Collection of Microorganisms. Fungi strains Candida albicans (CCM 8186), Candida glabrata (CCM 8270), Candida parapsilosis (CCM 8260), Candida krusei (CCM 8271), Candida tropicalis (CCM 8264) were acquired from Czech Collection of Microorganisms.
as §1, §2, §3

[4] = tested on: Escherichia coli (PCM 2057); format: cell-based
Text: as §4, §1, §2, §3

[5] = tested on: Staphylococcus epidermidis (PCM 2118); format: cell-based
Text: as §4, §1, §2, §3

[6] = tested on: Staphylococcus aureus (PCM 2054); format: cell-based
Text: as §4, §1, §2, §3

[7] = tested on: immortalized human HaCaT keratinocytes; experiment: Cell proliferation assay (MTT); format: cell-based; conditions: 72 h, serum-free DMEM; for Effect on HaCaT proliferation (MTT), in words: lower concentrations, 1 or 10 μg/mL
Procedure: In our study two kind of cells were used: immortalized human HaCaT keratinocytes (DKFZ Heidelberg, Germany) and primary dermal fibroblasts obtained from 3 healthy donors. Both types of the used cell lines were grown in Dulbecco's modified Eagle's medium (DMEM) (Sigma–Aldrich, Germany), that contained […] of glucose, […] of L-glutamine, sodium pyruvate and sodium bicarbonate. Additionally, medium was supplemented with 10% of FCS (fetal calf serum, Sigma-Aldrich, Germany), 100 U/mL of penicillin and 100 μg/mL streptomycin (Sigma-Aldrich, Germany). The cells were grown in culture dishes (BD, USA) under standard conditions in a humidified atmosphere with 5% CO2 at 37°C and medium was changed every 2 days.
The fibroblasts and keratinocytes were seeded at density of 4500 and 6000 cells per well, respectively, into 96-well plates suspended in a medium supplemented with 10% of FCS. After 24 h the media were exchanged with serum- and antibiotic- free DMEM and tested peptides dissolved in PBS were added yielding final concentration ranging from 1 to 50 μg/mL. Cells were incubated for the next 24 hours, when the medium was exchanged again and fresh portion of peptides (used at the same concentrations as previously) was added. Incubation was continued for the next 48 hours (the overall time of cell exposition to peptide was 72 h). At the end of the experiment cells were treated with 20 μL of MTT (5 mg/mL in PBS). After 3 h at 37°C under 5% CO2 medium was discarded and replaced by 6mM HCl in isopropanol. After 15 min when the purple crystals of formazan were fully solubilized, absorbance was read at 570 nm with a plate reader. The optical density reflects the level of cell viability as MTT is converted in purple formazan product only in the presence of viable mitochondria of the living cells.
Fig 1 Pro-proliferative activity of the tested peptides towards human keratinocytes (A) and fibroblasts (B). Cells were incubated for 72 hours in serum-free DMEM medium in the presence of peptides applied at concentrations of 1,10, 25 and 50 μg/mL, respectively. The data represents results of MTT assay expressed as the percentage of the cell viability in comparison to their control sample (cells incubated in serum-free DMEM without tested peptides), additional positive control corresponds to the cells incubated in the presence of 10% FCS. All experiments were performed independently in triplicate. *P < 0.05, **P < 0.01, ***P < 0.001 vs. control.
In order to evaluate a long-term effect of peptides, experiments were carried out for 72 hours. Before addition of the tested compounds, the cell medium was exchanged for the fresh one not containing any serum or antibiotic.

[8] = Circular dichroism, alpha-helical content; format: physicochemical; conditions: CD, mean residue ellipticity at 222 nm (Eq 1), peptide 0.4 mg/ml in 30 mM SDS, room temperature
Procedure: Circullar dichroism spectra of analyzed compounds were recorded on a Jasco J-815 spectropolarimeter using a quartz cell of 1 mm path length between 195–260 nm at room temperature. Peptides at concentration of 0.4 mg/ml were dissolved in water or 30 mM SDS solution. SDS micelle system was used as the simplified model of negatively charged lipid membrane. On the basis of the obtained results the alpha-helical content was determined from the mean residue ellipticities at 222 nm according to Eq 1: %Helix=([θ]obs/([θ]helixx(1−2.57/l))x100, (1) where [θ] obs is the experimentally observed mean-residue ellipticity at 222 nm, [θ]helix is the theoretical ellipticity of peptide of infinite length with a 100% helix population, taken as -39 500 deg·cm^2/dmol, and l is the number of peptide bonds.
Circular dichroism method was applied to obtain a basic information about the secondary structure of the synthesized compounds (with the exception of CAR, CAR3, DAL, CTEN2) in two chemical environments, water and 30 mM SDS. As expected, all the tested compounds in water adopted a random-coil structure, while in the presence of 30 mM SDS most of them formed α-helices with characteristic negative minima around 208 and 220 nm. […] The examples of CD spectra for selected peptides could be seen in supporting information (Figure A in S1 File). On the basis of the experimentally obtained values of the mean residue ellipticities of peptides at 222 nm their alpha-helical content was calculated according to the Eq 1 (Table 1).

[9] = tested on: Candida parapsilosis (CCM 8260); format: cell-based; conditions: broth microdilution, Mueller-Hinton broth + 2% glucose, about 2.5 x 10^3 CFU/mL, 37°C, 24 h, absorbance 590 nm, at least triplicate
Text: as §4, §1, §2, §3

[10] = tested on: Candida glabrata (CCM 8270); format: cell-based; conditions: broth microdilution, Mueller-Hinton broth + 2% glucose, about 2.5 x 10^3 CFU/mL, 37°C, 24 h, absorbance 590 nm, at least triplicate
Text: as §4, §1, §2, §3

[11] = tested on: Candida tropicalis (CCM 8264); format: cell-based; conditions: broth microdilution, Mueller-Hinton broth + 2% glucose, about 2.5 x 10^3 CFU/mL, 37°C, 24 h, absorbance 590 nm, at least triplicate
Text: as §4, §1, §2, §3

[12] = tested on: Candida krusei (CCM 8271); format: cell-based; conditions: broth microdilution, Mueller-Hinton broth + 2% glucose, about 2.5 x 10^3 CFU/mL, 37°C, 24 h, absorbance 590 nm, at least triplicate
Text: as §4, §1, §2, §3

[13] = tested on: Candida albicans (CCM 8186); format: cell-based; conditions: broth microdilution, Mueller-Hinton broth + 2% glucose, about 2.5 x 10^3 CFU/mL, 37°C, 24 h, absorbance 590 nm, peptide 2 to 250 μg/mL, at least triplicate
Text: as §4, §1, §2, §3

[14] = broth microdilution, Mueller-Hinton broth, approximately 10^5 CFU/mL, 37°C, absorbance 590 nm, at least triplicate
[15] = broth microdilution, Mueller-Hinton broth, approximately 10^5 CFU/mL, 37°C, 24 h, absorbance 590 nm, at least triplicate

## KKVVFWVKFK-NH2 [KSLW, reference compound]
[1]
  MIC B. cereus: 50 µg/mL
[2]
  MIC B. subtilis: 7.8 µg/mL
[3]; PCM 499, 24 h
  MIC P. aeruginosa: 25 µg/mL
[4]; PCM 2057, 24 h
  MIC E.coli: 7.8 µg/mL
[5]; PCM 2118, 24 h
  MIC S. epidermidis: 7.8 µg/mL
[6]; PCM 2054, 24 h
  MIC S.aureus: 25 µg/mL

## YAGFLR [DAL, dalargin, synthetic Leu-enkephalin analogue, reference compound]
[7]; whole range 1–50 μg/mL, vs. control without peptide, triplicate
  Effect on HaCaT cell viability/proliferation (MTT), in words: non-toxic

## ΒAHβAHβAH-PEG-IKKILSKIKKLL-NH2 [CAR3-PEG-DK5, conjugate of CAR3 and DK5 joined by PEG-linker]
[1]; [14]
  MIC B. cereus: >125 µg/mL
[2]; [14]
  MIC B. subtilis: 15.6 µg/mL
[8]
  α-helicity: 27%
[9]
  MIC C. parapsilosis: 2.0 µg/mL
[10]
  MIC C.glabrata: 125 µg/mL
[11]
  MIC C.tropicalis: 7.8 µg/mL
[3]; [15]
  MIC P. aeruginosa: 50 µg/mL
[4]; [15]
  MIC E.coli: >125 µg/mL
[12]
  MIC C.krusei: 7.8 µg/mL
[5]; [15]
  MIC S. epidermidis: 7.8 µg/mL
[6]; [15]
  MIC S.aureus: >125 µg/mL
[13]
  MIC C. albicans: 100 µg/mL
[7]
  Effect on HaCaT proliferation (MTT), in words: induced cell proliferation

## βAH-PEG-IKKILSKIKKLL-NH2 [CAR-PEG-DK5, conjugate of carnosine and DK5 joined by PEG-linker]
[1]; [14]
  MIC B. cereus: 100 µg/mL
[2]; [14]
  MIC B. subtilis: 3.9 µg/mL
[8]
  α-helicity: 41%
[9]
  MIC C. parapsilosis: 31.3 µg/mL
[10]
  MIC C.glabrata: 62.5 µg/mL
[11]
  MIC C.tropicalis: <2 µg/mL
[3]; [15]
  MIC P. aeruginosa: 50 µg/mL
[4]; [15]
  MIC E.coli: 100 µg/mL
[12]
  MIC C.krusei: 3.9 µg/mL
[5]; [15]
  MIC S. epidermidis: 3.9 µg/mL
[6]; [15]
  MIC S.aureus: 125 µg/mL
[13]
  MIC C. albicans: 15.6 µg/mL
[7]
  Effect on HaCaT proliferation (MTT), in words: induced cell proliferation

Source: paper PMC4608580, “Synthesis and Evaluation of Biological Activity of Antimicrobial – Pro-Proliferative Peptide Conjugates” (PLoS ONE, 2015)
